Test results taken from PubChem BioAssay (NCI).
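Method: 48-hour compound exposure of cells in 96-well plates, five concentrations, linear interpolation of endpoints. Definition used: TGI = concentration required for complete inhibition of growth.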

What was measured:
Assay in all cases: DTP human tumour cell line panel, 48 h
A498 renal = test system: A498 renal
A549 NSCLC = test system: A549 NSCLC
ACHN renal = test system: ACHN renal
CAKI-1 renal = test system: CAKI-1 renal
CCRF-CEM leukemia = test system: CCRF-CEM leukemia
COLO 205 colon = test system: COLO 205 colon
DLD-1 colon = test system: DLD-1 colon
DMS 114 small cell lung = test system: DMS 114 small cell lung
DMS 273 small cell lung = test system: DMS 273 small cell lung
EKVX NSCLC = test system: EKVX NSCLC
HCC-2998 colon = test system: HCC-2998 colon
HCT-116 colon = test system: HCT-116 colon
HCT-15 colon = test system: HCT-15 colon
HL-60(TB) leukemia = test system: HL-60(TB) leukemia
HOP-18 NSCLC = test system: HOP-18 NSCLC
HOP-62 NSCLC = test system: HOP-62 NSCLC
HOP-92 NSCLC = test system: HOP-92 NSCLC
HT29 colon = test system: HT29 colon
IGROV1 ovarian = test system: IGROV1 ovarian
K-562 leukemia = test system: K-562 leukemia
KM12 colon = test system: KM12 colon
KM20L2 colon = test system: KM20L2 colon
LXFL 529 NSCLC = test system: LXFL 529 NSCLC
M14 melanoma = test system: M14 melanoma
MALME-3M melanoma = test system: MALME-3M melanoma
MOLT-4 leukemia = test system: MOLT-4 leukemia
NCI-H226 lung = test system: NCI-H226 lung
NCI-H23 lung = test system: NCI-H23 lung
NCI-H522 lung = test system: NCI-H522 lung
OVCAR-3 ovarian = test system: OVCAR-3 ovarian
OVCAR-4 ovarian = test system: OVCAR-4 ovarian
OVCAR-5 ovarian = test system: OVCAR-5 ovarian
OVCAR-8 ovarian = test system: OVCAR-8 ovarian
RPMI-8226 leukemia = test system: RPMI-8226 leukemia
RXF-631 renal = test system: RXF-631 renal
SF-268 CNS = test system: SF-268 CNS
SF-295 CNS = test system: SF-295 CNS
SF-539 CNS = test system: SF-539 CNS
SK-MEL-2 melanoma = test system: SK-MEL-2 melanoma
SK-MEL-28 melanoma = test system: SK-MEL-28 melanoma
SK-MEL-5 melanoma = test system: SK-MEL-5 melanoma
SK-OV-3 ovarian = test system: SK-OV-3 ovarian
SN12C renal = test system: SN12C renal
SNB-75 CNS = test system: SNB-75 CNS
SNB-78 CNS = test system: SNB-78 CNS
SR leukemia = test system: SR leukemia
SW-620 colon = test system: SW-620 colon
TK-10 renal = test system: TK-10 renal
U251 CNS = test system: U251 CNS
UACC-257 melanoma = test system: UACC-257 melanoma
UACC-62 melanoma = test system: UACC-62 melanoma
UO-31 renal = test system: UO-31 renal
786-0 renal = test system: 786-0 renal
LOX IMVI melanoma = test system: LOX IMVI melanoma
M19-MEL melanoma = test system: M19-MEL melanoma
NCI-H460 lung = test system: NCI-H460 lung
RXF 393 renal = test system: RXF 393 renal
SNB-19 CNS = test system: SNB-19 CNS
XF 498 CNS = test system: XF 498 CNS

Measured: TGI

CS(=O)(=O)OCc1c(O)c2c(c(O)c1COS(C)(=O)=O)C(=O)C=CC2=O
not listed: 786-0 renal | LOX IMVI melanoma | M19-MEL melanoma | NCI-H460 lung | RXF 393 renal | SNB-19 CNS | XF 498 CNS
> 100 µM: all other assays above

COC(=O)/C(=N\O)C(C(=O)C=C(C)C)C(=O)C(=O)Nc1ccccc1C (stereo not given)
not listed: RXF-631 renal
> 100 µM: all other assays above
